Data: ChEMBL document CHEMBL1123226, “Methotrexate analogues. 29. Effect of gamma-aminobutyric acid spacers between the pteroyl and glutamate moieties on enzyme binding and cell growth inhibition” (J Med Chem, 1986)

Key:
Thymidylate synthase = molecular target: T1, Thymidylate synthase (Lactobacillus casei, UniProt P00469); experiment: Compound was tested for its ability to inhibit thymidylate synthetase isolated from MTX-resistant Lactobacillus casei; parameters: species or system Lacticaseibacillus casei
T1 sequence (P00469 whole entry): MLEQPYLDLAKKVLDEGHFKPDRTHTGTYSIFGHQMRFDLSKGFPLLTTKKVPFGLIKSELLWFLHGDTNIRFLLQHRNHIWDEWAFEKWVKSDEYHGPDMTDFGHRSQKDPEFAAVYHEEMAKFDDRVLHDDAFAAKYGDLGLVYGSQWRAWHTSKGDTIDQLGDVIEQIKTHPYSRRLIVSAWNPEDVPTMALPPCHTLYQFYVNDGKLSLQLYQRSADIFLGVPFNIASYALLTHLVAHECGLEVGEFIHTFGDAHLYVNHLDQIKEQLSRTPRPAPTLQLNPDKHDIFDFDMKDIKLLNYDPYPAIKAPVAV

L1210 = experiment: Compound was tested for its ability to inhibit L1210 cell growth; type: functional, cell-based; details: Mus musculus
[1] = molecular target: T2, Dihydrofolate reductase (Mus musculus) (UniProt P00375); details: L1210
T2 sequence (whole entry): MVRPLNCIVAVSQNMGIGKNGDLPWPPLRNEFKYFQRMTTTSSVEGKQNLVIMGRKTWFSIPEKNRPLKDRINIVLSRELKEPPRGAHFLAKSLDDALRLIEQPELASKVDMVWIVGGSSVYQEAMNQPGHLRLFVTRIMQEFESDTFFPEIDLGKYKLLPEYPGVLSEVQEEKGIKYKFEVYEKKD
Description: Compound was tested for its ability to inhibit dihydrofolate reductase purified from murine L1210 cells, activity expressed as IC50/[E]

Dihydrofolate reductase = molecular target: T3, Dihydrofolate reductase (Mus musculus, UniProt P00375); experiment: biochemical
T3 sequence (P00375 whole entry): T2 sequence (whole entry)
Description: Compound was tested for its ability to inhibit dihydrofolate reductase purified from murine L1210 cells

| Ki (Thymidylate synthase) [nM] | IC50 (L1210) [nM] | IC50/[E] [1] | IC50 (Dihydrofolate reductase) [nM] | SMILES |
| --- | --- | --- | --- | --- |
| 189 | > 100000 | 7.7 | 540 | CN(Cc1cnc2nc(N)nc(N)c2n1)c1ccc(C(=O)NCCCC(=O)NCCCC(=O)NCCCC(=O)NCCCC(=O)NC(CCC(=O)O)C(=O)O)cc1 (stereo unspecified) |
| 205 | 5600 | 1.3 | 90 | CN(Cc1cnc2nc(N)nc(N)c2n1)c1ccc(C(=O)NCCCC(=O)NCCCC(=O)NC(CCC(=O)O)C(=O)O)cc1 (stereo unspecified) |
| 130 | 29000 | 4.4 | 310 | CN(Cc1cnc2nc(N)nc(N)c2n1)c1ccc(C(=O)NCCCC(=O)NCCCC(=O)NCCCC(=O)NC(CCC(=O)O)C(=O)O)cc1 (stereo unspecified) |

More lines, now with the values behind:

| SMILES | Ki (Thymidylate synthase) [nM] | IC50 (L1210) [nM] | IC50/[E] [1] | IC50 (Dihydrofolate reductase) [nM] |
| --- | --- | --- | --- | --- |
| CN(Cc1cnc2nc(N)nc(N)c2n1)c1ccc(C(=O)N[C@@H](CCC(=O)O)C(=O)O)cc1 [METHOTREXATE] | – | 20 | – | – |
| CN(Cc1cnc2nc(N)nc(N)c2n1)c1ccc(C(=O)NCCCC(=O)NC(CCC(=O)O)C(=O)O)cc1 (stereo unspecified) | 336 | 530 | 0.82 | 82 |
| CN(Cc1cnc2nc(N)nc(N)c2n1)c1ccc(C(=O)NCCCC(=O)NCCCC(=O)NCCCC(=O)NCCCC(=O)NCCCC(=O)NC(CCC(=O)O)C(=O)O)cc1 (stereo unspecified) | 172 | > 100000 | 12 | 840 |
